The values that follow come from US20240415819A1, “MACROCYCLIC COMPOUNDS AS PROTEASOME SUBUNIT BETA TYPE-5 INHIBITORS” (Lead Discovery Center GmbH, priority 2021, published 2024).

Where only a bound is given, the exact number is not on record here.

Test [1] concerns the target T1, β5 subunit of the human constitutive proteasome (CPS) (Homo sapiens, UniProt P28074).
T1 construct: purchased Boston Biochem E-360
The test can be described thus: β5 inhibition assay, human constitutive proteasome (Suc-LLVY-AMC). Type of test: biochemical. Conditions: IC50 class, Suc-LLVY-AMC substrate. The method, then:
The enzymatic activity of the β5 subunit of the human constitutive proteasome (CPS) is analyzed. In another assay, which differs from the assay of the human constitutive proteasome only in using the human immunoproteasome (IPS) the enzymatic activity of the β5 subunit of the human immunoproteasome (IPS) is analyzed. […] Inhibition is indicated as IC50 [nM] (“-”=not measured).

The subject of test [2] is A549 (human lung carcinoma cell line). Description: Glo assay of A549 cells (Table 3; ProteasomeGlo plating scheme). Format: cell-based. Conditions: Homo sapiens; A549 cells; read-out: PGLo A549. An outline of the steps:
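Luminescent read-out of cellular chymotrypsin-like proteasome activity: cells exposed to compound 105 min at 37° C., 5% CO2, then given Suc-LLVY-Glo reagent, shaken 2-5 min and kept dark 10-15 min before reading. Values are IC50 [nM].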

The test system of another test is hPMBC. Description: Chymotrypsin-like ProteasomeGlo assay in hPBMC. Format: cell-based. Conditions: Homo sapiens; read-out: Pglo hPBMC. An outline of the steps:
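IC50 derived from luminescent chymotrypsin-like proteasome activity (Suc-LLVY-Glo substrate plus luciferin detection reagent). Measured after 105 min compound exposure at 37 °C, 5% CO2. Cells were human B cells purified from buffy-coat PBMC.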

With `CC(=O)N[C@H]1CC(=O)N2CCCC(CCOc3ccc(C)c(c3)CNC(=O)C(c3cn[nH]c3)NC1=O)C2` (stereo partly drawn) [Compound 562, N-((12S)-5^4-methyl-8,11,14-trioxo-9-(1H-pyrazol-4-yl)-4-oxa-7,10-diaza-1(3,1)-piperidina-5(1,3)-benzenacyclotetradecaphane-12-yl)acetamide], the IC50 in test [1] was under 100 nM; in test [2], 100 to 500 nM; in the test with hPMBC it was under 100 nM.

On to `CC(=O)N[C@H]1CC(=O)N2CCCC(CCOc3ccc(C)c(c3)CNC(=O)C(CCc3nccs3)NC1=O)C2` (stereo partly drawn) [Compound 563, N-((12S)-5^4-methyl-8,11,14-trioxo-9-(2-(thiazol-2-yl)ethyl)-4-oxa-7,10-diaza-1(3,1)-piperidina-5(1,3)-benzenacyclotetradecaphane-12-yl)acetamide], for which the IC50 (in test [1]; in test [2]; with hPMBC) was under 100 nM in each case.

On to `CC(=O)N[C@H]1CC(=O)N2CCCC(CCOc3ccc(C)c(c3)CNC(=O)C(c3cnn(CCOCCOCCOCCN)c3)NC1=O)C2` (stereo partly drawn) [Compound 566, N-((12S)-9-(1-(2-(2-(2-(2-aminoethoxy)ethoxy)ethoxy)ethyl)-1H-pyrazol-4-yl)-5^4-methyl-8,11,14-trioxo-4-oxa-7,10-diaza-1(3,1)-piperidina-5(1,3)-benzenacyclotetradecaphane-12-yl)acetamide], for which the values for the IC50 (in test [1]; in test [2]; in the test with hPMBC) were under 100 nM, under 100 nM and 100 to 500 nM, respectively.

Regarding `CC(=O)N[C@H]1CC(=O)N2CCCC(CCOc3ccc(C)c(c3)CNC(=O)C(c3cnn(CCC(=O)O)c3)NC1=O)C2` (stereo partly drawn) [Compound 567, 3-(4-((12S)-12-acetamido-5^4-methyl-8,11,14-trioxo-4-oxa-7,10-diaza-1(3,1)-piperidina-5(1,3)-benzenacyclotetradecaphane-9-yl)-1H-pyrazol-1-yl)propanoic acid], the IC50 (in test [1]; in test [2]; with hPMBC) was under 100 nM in each case.
